pIC50: −log10 of the molar value.

This note sets out measurements from patent US11512053B2, “Arginine methyltransferase inhibitors and uses thereof” (priority 2013, dated 2022).

In the experiment the target is full-length human PRMT6 (Flag- and His-tagged) (Homo sapiens, UniProt Q96LA8). As to the kind of experiment: PRMT6 Biochemical Assay (3H-SAM Flashplate, peptide substrate). The conditions noted are these: single experiment or average of multiple experiments; read-out: Biochemical IC50 PRMT6. Put shortly: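 Flag/His-tagged full-length human PRMT6 (1 nM) preincubated with compound 30 min at room temperature in Bicine pH 7.6 buffer, then reaction started with 3H-SAM 200 nM plus unlabeled SAM 250 nM and biotinylated H4 36-50 peptide (K44me1) 75 nM; 2% DMSO. Quenched with 400 uM cold SAM; labeled peptide captured on streptavidin Flashplate, counted; % inhibition vs DMSO and 1 mM SAH controls fit by 3- or 4-parameter curve.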
Chain of full-length human PRMT6 (Flag- and His-tagged) (Q96LA8 with tags, fused parts or gaps): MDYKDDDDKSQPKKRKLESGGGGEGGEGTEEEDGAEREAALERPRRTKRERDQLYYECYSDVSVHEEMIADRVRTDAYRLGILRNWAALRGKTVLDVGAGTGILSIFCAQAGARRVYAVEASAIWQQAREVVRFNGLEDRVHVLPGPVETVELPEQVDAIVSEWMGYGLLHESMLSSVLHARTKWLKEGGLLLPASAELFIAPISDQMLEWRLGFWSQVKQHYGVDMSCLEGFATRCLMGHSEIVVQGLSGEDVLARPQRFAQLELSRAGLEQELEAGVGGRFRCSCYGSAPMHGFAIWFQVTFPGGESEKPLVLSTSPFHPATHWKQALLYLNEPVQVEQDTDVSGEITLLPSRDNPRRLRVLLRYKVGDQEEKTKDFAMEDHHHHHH

Regarding `CNCCN(C)Cc1c[nH]nc1C#Cc1ccccc1` [Compound 3], the negative-log IC50 (pIC50) was 7.70.
